Experimental data reported in ChEMBL document CHEMBL1201862, “PubChem BioAssay data set” (2004).
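1) Cells in 96-well plates. 2) Compound, 48 h, 5 concentrations. 3) Linear interpolation between surrounding doses. 4) Unreached endpoint = highest concentration. At the GI50, growth is halved.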 The source made the active and inactive calls. No stated cut-off is given here; in the data, active = GI50 up to about 1.1 µM and inactive = higher.

How the values were obtained:
Experiment in all cases: NCI tumour cell line growth inhibition, 48 h
DLD-1 = test system: DLD-1
DMS-114 = test system: DMS-114
DMS-273 = test system: DMS-273
KM-20L2 = test system: KM-20L2
M19-MEL = test system: M19-MEL
XF498 = test system: XF498
T47D = test system: T47D
BT-549 = test system: BT-549
RXF 631 = test system: RXF 631

| SMILES | GI50 (T47D) | GI50 (BT-549) | other results |
| --- | --- | --- | --- |
| C/C(=N\O)C(CN(C)C)C(c1ccccc1)c1c(O)c2ccccc2oc1=O (centres undefined) | – | – | GI50 (DLD-1): > 100 µM (inactive); GI50 (DMS-114): > 100 µM (inactive); GI50 (DMS-273): > 100 µM (inactive); GI50 (KM-20L2): > 100 µM (inactive); GI50 (M19-MEL): > 100 µM (inactive); GI50 (XF498): > 100 µM (inactive) |
| CC(C)NC(=O)OCc1c2c(n(C)c1COC(=O)NC(C)C)-c1ccccc1CC2 | – | – | GI50 (DLD-1): 11.9 µM (inactive); GI50 (DMS-114): 5.43 µM (inactive); GI50 (DMS-273): 13.9 µM (inactive); GI50 (KM-20L2): 14 µM (inactive); GI50 (M19-MEL): 9.89 µM (inactive); GI50 (XF498): 13.1 µM (inactive) |
| CC1CN=C(N(Cc2ccc(F)cc2)C(=O)Nc2ccc(Cl)cc2)S1 (centres undefined) | 13.3 µM (inactive) | – | – |
| Cc1ccc(S(=O)ON2CCC(C(=O)O)(c3ccccc3)CC2)cc1 (centres undefined) | > 100 µM (inactive) | > 100 µM (inactive) | – |
| CN(c1ccccc1)c1nc(=[N+]2CCCC2)ss1.[O-][Cl+3]([O-])([O-])[O-] | – | – | GI50 (DMS-114): 7.66 µM (inactive); GI50 (DMS-273): 6.56 µM (inactive); GI50 (KM-20L2): > 100 µM (inactive); GI50 (RXF 631): 20.6 µM (inactive) |
| CC(=O)c1c2c(cc3c1CC1(C3)Cc3cc4c(c(C(=O)O)c3C1)CCC4)CCC2 (centres undefined) | – | – | GI50 (DLD-1): 37.1 µM (inactive); GI50 (DMS-114): 36.3 µM (inactive); GI50 (DMS-273): 35.6 µM (inactive); GI50 (M19-MEL): 37 µM (inactive); GI50 (XF498): 57.1 µM (inactive) |
| Cc1ccsc1/C=N/NC1=NCCN1 | > 100 µM (inactive) | > 100 µM (inactive) | – |
| S=c1sscc1N1CCSc2ssc(=S)c21 | 20.8 µM (inactive) | 37 µM (inactive) | – |
| Oc1ccc(/C=C/c2cc(O)cc(O)c2)cc1 [RESVERATROL] | 8.65 µM (inactive) | > 100 µM (inactive) | – |
| CC(=O)Oc1ccc(-c2nnc(-c3ccc(OC(C)=O)cc3)nn2)cc1 | > 100 µM (inactive) | > 100 µM (inactive) | – |
| COC(=O)C1CC(C=[N+](C)C)=C(SC)N1 (centres undefined) | > 100 µM (inactive) | > 100 µM (inactive) | – |
| O=C1C(=C(C(F)(F)Cl)C(F)(F)Cl)C2CCC1C2 (centres undefined) | 1.38 µM (inactive) | 1.58 µM (inactive) | – |
| ClC1(Cl)C2CCOC21n1cnc2ccccc21 (centres undefined) | > 100 µM (inactive) | > 100 µM (inactive) | – |
| Cc1ccc(S(=O)(=O)NNC(C[N+](=O)[O-])c2ccccc2)cc1 (centres undefined) | 10.9 µM (inactive) | 15.6 µM (inactive) | – |
| NC(Cc1ccccc1)C(=O)N[C@H]1c2ccsc2/C(=N/O)[C@H]1O (some centres undefined) | > 100 µM (inactive) | > 100 µM (inactive) | – |
| COC1(OC)CC2C(=O)N(Cc3ccccc3)C1C(S(=O)(=O)c1ccccc1)C2C(C)S(=O)(=O)c1ccccc1 (centres undefined) | – | – | GI50 (DLD-1): > 100 µM (inactive); GI50 (DMS-114): 75.5 µM (inactive); GI50 (DMS-273): > 100 µM (inactive); GI50 (KM-20L2): > 100 µM (inactive); GI50 (M19-MEL): > 100 µM (inactive); GI50 (XF498): > 100 µM (inactive) |

| SMILES | GI50 (T47D) | GI50 (BT-549) | other results |
| --- | --- | --- | --- |
| CC(=O)c1ccc2c3c1[C@@H]1O[C@@H]1c1cccc(c1-3)[C@@H]1O[C@H]21 | 6.76 µM (inactive) | 15.1 µM (inactive) | – |
| C=CC1(c2ccc(Br)cc2)OCCCO1 | > 100 µM (inactive) | – | – |
| Cc1cc(C)nc(NS(=O)(=O)c2ccc(NC(=O)COC(=O)c3cccc4c(=O)c5ccccc5[nH]c34)cc2)n1 | – | – | GI50 (DLD-1): 45.7 µM (inactive); GI50 (DMS-114): 56.5 µM (inactive); GI50 (DMS-273): 41.2 µM (inactive); GI50 (KM-20L2): 38.6 µM (inactive); GI50 (M19-MEL): 20.4 µM (inactive); GI50 (XF498): 33.3 µM (inactive) |
| C=CCN1C[C@H](C)N([C@H](c2ccc(C(=O)N(CC)CC)cc2)c2cccc(OC)c2)C[C@H]1C [SNC-80] | 17 µM (inactive) | 41.1 µM (inactive) | – |
| Cc1cc(O)c(C(=O)O)c2c1C(=O)c1c(O)c(OCC(O)C(O)C(O)C(O)CO)c(O)c(O)c1C2=O.NCCNCCO (centres undefined) | – | – | GI50 (DLD-1): > 100 µM (inactive); GI50 (DMS-114): > 100 µM (inactive); GI50 (KM-20L2): > 100 µM (inactive); GI50 (M19-MEL): > 100 µM (inactive); GI50 (XF498): > 100 µM (inactive) |
| CCOC(=O)c1c(-c2ccc(Cl)cc2)c(C#N)c(=S)n(C2OC(CO)C(O)C(O)C2O)c1-c1ccccc1 (centres undefined) | 23.2 µM (inactive) | 29.4 µM (inactive) | – |
| CNNC1=NS(=O)(=O)c2cc(C(=O)OC)c(Cl)cc2S1 | > 10 µM (inactive) | > 10 µM (inactive) | – |
| O=c1[nH]c(=O)n(C2OC(CO)C(O)C2O)cc1OCCCc1ccccc1 (centres undefined) | > 100 µM (inactive) | – | – |
| C/C(=N/NC(=S)N1CCCCCC1)c1ccccc1O | 7.6 µM (inactive) | 8.97 µM (inactive) | – |
| O=C1c2ccccc2C2C1C(c1ccccc1)C1(Cc3ccccc3C1=O)C2c1ccccc1 (centres undefined) | 11.4 µM (inactive) | > 100 µM (inactive) | – |
| CC1(C)CCCC(C)(C2CCC3(C)C2C(O)CC2C4(C)CCC(O)C(C)(C)C4CCC23C)O1 (centres undefined) | > 100 µM (inactive) | > 100 µM (inactive) | – |
| CC(=O)Oc1c(-c2ccccc2)oc2ccccc12 | 1.98 µM (inactive) | 2.65 µM (inactive) | – |
| O=P(Oc1ccc(Cl)cc1)(Oc1ccc(Cl)cc1)N1CC1 | > 10 µM (inactive) | > 10 µM (inactive) | – |
| O=C(OCC(OC(=O)c1ccccc1)C(OC(=O)c1ccccc1)C(OC(=O)c1ccccc1)c1cnn(-c2ccccc2)n1)c1ccccc1 (centres undefined) | > 100 µM (inactive) | > 100 µM (inactive) | – |
| NCCC(=O)NC(Cc1c[nH]cn1)C(=O)O (centres undefined) | > 100 µM (inactive) | – | – |
| Cc1cccc(C)c1/N=N/c1ccc(O)c(CN(C)C)c1 | 23.6 µM (inactive) | 56.5 µM (inactive) | – |
